Like-named read-outs stand apart in the source and are kept apart here.
Columns and labels:
rat FLS cells [1] = test system: rat FLS cells; parameters: method as in PMID 15980490; conditions: cited from earlier work
malignant cells = conditions: background statement, no reference given; cited from earlier work
rat C6 glioma cells [2] = test system: rat C6 glioma cells; parameters: method as in PMID 31260876; conditions: cited from earlier work
rat C6 gliosarcoma cells = experiment: In vitro survival study (BNCT, thermal neutron irradiation, colony formation), C6 cells; assay type: cell-based; conditions: C6 gliosarcoma tumor cells
Source text: (§1) The preliminary in vitro killing effects of compound 3 were examined by using rat C6 gliosarcoma tumor cells and fibroblast-like synoviocytes (FLS) cells, respectively. The in vitro survival study was completed with the thermal neutron fluence ranging from 0 to 4.2 × 10^12 n/cm^2. The γ-ray dose presented in the experiment was monitored by thermoluminescent dosimeters (TLDs) attached to the tubes and ranged from 0 to 5 Sv. […] A low surviving fraction of around 0.01 was obtained by compound 3 after irradiation for 50 min.
(§2) The in vitro assessments were carried out according to methods reported in the literature. […] The inability of cells to adhere to Teflon allows precise quantitative manipulation of cells without trypsinization. […] The thermal neutron fluence was determined by averaging the activity of two gold films symmetrically attached to the Teflon tube surface along the thermal neutron axis. […] The neutron absorbed dose (Gy) was calculated using the flux-to-dose conversion factor [39, 40]. […] The γ-ray dose was monitored by thermoluminescent dosimeters (TLDs) (Kyoto, Japan) attached to the tubes, and it ranged from 0 to 5 Sv. […] The colonies were fixed and stained with a 10% formaldehyde/1% toluidine blue solution and then counted microscopically.
(§3) The in vitro BNCS was carried out in triplicate. […] The significance of the differences in survival rates was assessed by Student’s t-test. […]

[3] = Solubility in organic solvents; assay type: physicochemical; conditions: organic solvents such as DMF, THF and DMSO
Source text: Carboranyl sinomenine product was synthesized by a straightforward method as shown in Scheme 1. In this process, sinomenine anion was generated in situ from the reaction of sinomenine (1) with the excess quantity of potassium carbonate in N,N-dimethyl formide (DMF) solvent at room temperature under argon atmosphere. The resulting sinomenine anion reacted with 4-(methyl-ortho-carboranyl)-n-butyl iodide (2), prepared according to the literature method, to produce the carboranyl sinomenine (3) as a colorless solid in 54.3% yield after recrystallization from tetrahydrofuran (THF) solvent.

rat FLS cells [4] = experiment: Uptake of boron by rat fibroblast-like synoviocytes cells (ICP-AES); assay type: cell-based; conditions: 24 h culture with boron agent
Source text: (§4) The rat C6 glioma cells and fibroblast-like synoviocytes (FLS) cells were used to conduct the boron uptake of 3. The boron uptakes of clinically used L-BPA and BSH were also listed for comparation. The results reveal that 3 was able to permeate both C6 glioma cells and FLS cells. […] The higher membrane permeability provides enhanced boron concentration in the cell lines. […] Nevertheless, the detailed mechanism of 3 crossing cell membrane warrants further investigation.
(§5) According to literature, 3.7 × 10^8 rat FLS cells or 2.6 × 10^7 rat C6 glioma cells were seeded and cultured at […] (37 °C, 5% CO2) for 24 hrs. This culture fluid was removed therefrom by suction, culture fluids containing 1.5 mM of boron agent 3 with the boron concentrations of 3.0 mM, 1.5 mM, 18.0 mM, and 1.5 mM, respectively, were added and continued culturing for 24 h under the same conditions. These culture fluids were removed by suction and the cells were washed three times with PBS and treated with trypsin to recover the cells. The number of cells recovered was counted, and HNO3 (2N, 1.5 mL) was added and the resulting mixture was heated at 80 °C for 12 h. After filtering using a membrane filter, the boron concentration was determined by ICP-AES (Singapore).

rat C6 glioma cells [5] = experiment: Uptake of boron by rat C6 glioma cells (ICP-AES); assay type: cell-based; conditions: 24 h culture with boron agent
Source text: as §4, §5

[6] = test system: rat fibroblast-like synoviocytes (FLS) cells; experiment: In vitro survival study (BNCS, thermal neutron irradiation, colony formation), FLS cells; assay type: cell-based; conditions: same operating conditions as L-BPA
Source text: as §1, §2, §3

rat FLS cells [7] = experiment: Cytotoxicity study, standard MTT assay; assay type: cell-based; conditions: 3 days of continuous exposure, no irradiation, read-out: IC50 (growth inhibition, cytotoxicity)
Experimental: The IC50 (moles/liter, M), the concentration that inhibited the growth of rat FLS cells by 50% after 3 days of continuous exposure, was determined using the standard MTT assay. Suspensions of 4.9 × 10^5 of rat fibroblast-like synoviocytes cells /200 μL MEM containing 20% FCS were incubated for 3 days using 96-well culture plates with various concentrations of the samples in dimethyl sulfoxide (DMSO). The damaged cells were detected at 490 nm optical absorbance by Aqueous One Solution Cell Proliferation Assay.
Figure S-4. 1H NMR of 3 in DMSO-d6.
2. Cytotoxicity study. For IC50 analysis, the standard MTT method was used to analyze IC50 of compound 3. The IC50 determinations were performed in the presence of serial dilutions of inhibitor (1000 μM to 3.906 µM, 1% DMSO, final) in complete reaction buffer and incubated for […].
Figure S-5. IC50 dose responsive curve of 3 for rat FLS cells. […]

| Compound | Boron amounts delivered to the cells (rat FLS cells [1]) | Concentration in malignant cells relative to blood and other healthy cells (malignant cells) | Boron amounts delivered to the cells (rat C6 glioma cells [2]) | Surviving fraction (rat C6 gliosarcoma cells; after thermal neutron irradiation for 50 min) | Killing effect improved compared with L-BPA (rat C6 gliosarcoma cells; thermal neutron irradiation, same operating conditions as L-BPA) | Solubility [3] | Boron amounts delivered to the cells (rat FLS cells [4]) | Boron amounts delivered to the cells (rat C6 glioma cells [5]) | Killing effects enhanced compared with L-BPA [6] | IC50 (rat FLS cells [7]) |
| --- | --- | --- | --- | --- | --- | --- | --- | --- | --- | --- |
| N[C@@H](Cc1ccc(B(O)O)cc1)C(=O)O [L-BPA, 4-borono-L-phenylalanine] | 0.74 [31] μg/10^7 cells | 2–4 times | 0.67 [21] μg/10^7 cells | – | – | – | – | – | – | – |
| methylcarboranyl-n-butyl sinomenine [Compound 3] | – | – | – | around 0.01 | approximately nine times | soluble in various organic solvents | 3.04 μg/10^7 cells | 4.25 μg/10^7 cells | approximately three times | 310.4 ± 0.3 µM |
| sodium borocaptate [BSH] | 1.82 [31] μg/10^7 cells | – | 2.14 [21] μg/10^7 cells | – | – | – | – | – | – | – |

Source: PMC7587333, “Synthesis, Molecular Docking, and In Vitro Boron Neutron Capture Therapy Assay of Carboranyl Sinomenine” (Molecules, 2020)
